Laboratory results taken from US20170211043A1, “METHOD FOR IN VITRO PRODUCTION OF ADIPOCYTE PROGENITORS AND ADIPOCYTES” (UNIVERSITE PIERRE ET MARIE CURIE (PARIS 6), priority 2014, published 2017).

Legend:
Type in all cases: cell-based, human
[1] = tested on: PGC1α, PRDM16, PPARα and DIO2; assay: Real-time quantitative PCR of thermogenesis genes after 8-Br-cAMP; conditions: after 48 hours, D20 adipocytes, vs basal
Description: Total RNAs were extracted using the NucleoSpin RNA kit (Macherey Nagel) according to the manufacturer's recommendations. The concentration of total RNAs extracted and their contamination by solvents or salts were evaluated by microspectrophotometry (Nanodrop). Reverse transcription was carried out using the High Capacity cDNA Reverse Transcription Kit (Applied Biosystems). Quantitative PCR was then carried out by adding 2 μL of cDNA diluted 10 times, 10 μL of SYBR Green I PCR mix (Roche Diagnostics, including DNA polymerase, dNTPs, 3 mM MgCl2 and SYBR Green fluorescent probe), 0.2 μM sense primer and 0.2 μM antisense primer (Table 2 below). The reference gene GAPDH was used to normalize the expression of the genes of interest.
(§1) The adipocytes were optionally treated for 6 hours with 10^−5 M isoproterenol (Sigma), then the protein samples were collected. For a longer stimulation, the adipocytes were treated with a non-metabolizable cAMP analogue, 8-Br-cAMP (Sigma), for 48 hours.

beige adipocytes = assay: MitoTracker staining of adipocytes after 8-Br-cAMP; conditions: after 48 hours, vs basal
Description: as §1
Living cells at D20 of differentiation were incubated with 1 μM MitoTracker® Red CMXRos (Life Technologies®) for 45 minutes in the dark at 37° C., 5% CO2. After rinsing twice with PBS, the cells were fixed with 3% PFA for 15 minutes at room temperature. The preparation was then incubated for 15 minutes with 1 ng/mL BODIPY 493/503 (Molecular Probes®, D-3922) then rinsed 3 times with PBS before being incubated for 5 minutes in DAPI (4′-6-diamidino-2-phenylindole, VWR). After applying the mounting medium (Fluoromount-G™, Southern Biotech), the cells were observed using a confocal microscope (Leica).

[2] = tested on: insulin receptor (IR) and AKT/PKB; assay: Short insulin treatment of adipocytes derived from iPS cells, phospho-specific Western blot; conditions: adipocytes after 20 days of differentiation
Description: The adipocytes were lysed in a suitable volume of lysis buffer (50 mM Tris pH 7.4, 0.27 M sucrose, 1 mM Na-orthovanadate pH 10, 1 mM EDTA, 1 mM EGTA, 10 mM (3-glycerophosphate, 50 mM NaF, 5 mM pyrophosphate, 1% (w/v) Triton X-100, 0.1% (w/v) 2-β-mercaptoethanol, and protease inhibitors). The total lysates were centrifuged (15,000 g, 4° C. for 10 minutes) then stored at −80° C. until use. The protein concentrations were determined using the Bradford method with bovine albumin as the standard. The samples underwent SDS/PAGE migration on polyacrylamide gels and then were transferred onto nitrocellulose membranes (Amersham Biosciences), blocked for 2 hours at room temperature in TBS-T buffer (50 mM Tris-HCl pH 7.6, 150 mM NaCl, 0.1% (v/v) Tween-20) supplemented with 5% (w/v) skimmed milk or BSA, and incubated with the various antibodies specific to the protein of interest (Table 1 above).
The nitrocellulose membranes were rinsed 3×5 minutes in TBS-T buffer before being incubated with the secondary antibody coupled to peroxidase. The signals were detected using chemiluminescence (Pierce-Perbio Biotechnologies) by exposure on autoradiographic film (Kodak).

Row | Compound | expression of genes involved in thermogenesis (PGC1α, PRDM16, PPARα, DIO2) [1] | number of mitochondria in the beige adipocytes (beige adipocytes) | phosphorylation of the insulin receptor (IR) subunit and its target AKT [2]
1 | Nc1ncnc2c1nc(Br)n2[C@@H]1O[C@@H]2COP(=O)(O)O[C@H]2[C@H]1O [8-Br-cAMP] | increase | increase in the number of mitochondria | 
2 | insulin |  |  | strong phosphorylation
